According to ChEMBL document CHEMBL1909046, “DrugMatrix in vitro pharmacology data”:

Assays:
[1] = molecular target: T1, C-C chemokine receptor type 4 (Homo sapiens, UniProt P51679); assay type: cell membranes, Membrane; details: chem-1; also: in other assays of this panel Not Active means under 50% inhibition at 10 µM
T1 sequence (P51679 whole entry): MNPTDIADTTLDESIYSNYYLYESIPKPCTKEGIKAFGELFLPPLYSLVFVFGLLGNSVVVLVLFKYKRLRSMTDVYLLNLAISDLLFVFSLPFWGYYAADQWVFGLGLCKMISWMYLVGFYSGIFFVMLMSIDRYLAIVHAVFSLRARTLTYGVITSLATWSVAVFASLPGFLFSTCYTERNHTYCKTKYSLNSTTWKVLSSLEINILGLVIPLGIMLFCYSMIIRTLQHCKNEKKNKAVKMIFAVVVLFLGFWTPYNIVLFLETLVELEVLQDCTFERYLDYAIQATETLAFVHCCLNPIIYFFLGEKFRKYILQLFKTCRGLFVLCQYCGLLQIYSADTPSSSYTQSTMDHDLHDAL

[2] = molecular target: T2, Cysteinyl leukotriene receptor 1 (Homo sapiens, UniProt Q9Y271); assay type: cell membranes, Membrane; details: cho-k1; also: in other assays of this panel Not Active means under 50% inhibition at 10 µM
T2 sequence (Q9Y271 whole entry): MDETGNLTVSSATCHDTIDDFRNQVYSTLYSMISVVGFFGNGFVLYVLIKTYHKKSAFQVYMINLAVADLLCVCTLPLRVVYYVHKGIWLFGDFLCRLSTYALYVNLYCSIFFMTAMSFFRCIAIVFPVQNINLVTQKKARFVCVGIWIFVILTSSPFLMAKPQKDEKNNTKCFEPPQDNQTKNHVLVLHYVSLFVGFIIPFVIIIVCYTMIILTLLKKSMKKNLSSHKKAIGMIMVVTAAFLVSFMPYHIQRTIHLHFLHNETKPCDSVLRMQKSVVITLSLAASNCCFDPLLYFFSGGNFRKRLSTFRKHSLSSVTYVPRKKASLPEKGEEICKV

[3] = molecular target: Mitogen-activated protein kinase 1 (Homo sapiens, UniProt P28482); experiment: DRUGMATRIX: Protein Serine/Threonine Kinase, ERK2 enzyme inhibition (substrate: Myelin Basic Protein); parameters: species or system Escherichia coli; details: Not Active = under 50% inhibition at 10 µM
[4] = molecular target: Matrix metalloproteinase-9 (Homo sapiens, UniProt P14780); experiment: biochemical; assay type: cell-based;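 also: inhibition of isolated MMP-9 enzyme activity toward a synthetic peptide substrate, from the DrugMatrix protease screening panel; in other assays of this panel Not Active means under 50% inhibition at 10 µM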
[5] = molecular target: Platelet-activating factor receptor (Homo sapiens, UniProt P25105); experiment: biochemical; assay type: tissue-based; details: platelet; also: in other assays of this panel Not Active means under 50% inhibition at 10 µM
[6] = molecular target: T3, Angiotensin-converting enzyme (Oryctolagus cuniculus, UniProt P12822); assay type: tissue-based, Lung
T3 sequence (P12822 whole entry): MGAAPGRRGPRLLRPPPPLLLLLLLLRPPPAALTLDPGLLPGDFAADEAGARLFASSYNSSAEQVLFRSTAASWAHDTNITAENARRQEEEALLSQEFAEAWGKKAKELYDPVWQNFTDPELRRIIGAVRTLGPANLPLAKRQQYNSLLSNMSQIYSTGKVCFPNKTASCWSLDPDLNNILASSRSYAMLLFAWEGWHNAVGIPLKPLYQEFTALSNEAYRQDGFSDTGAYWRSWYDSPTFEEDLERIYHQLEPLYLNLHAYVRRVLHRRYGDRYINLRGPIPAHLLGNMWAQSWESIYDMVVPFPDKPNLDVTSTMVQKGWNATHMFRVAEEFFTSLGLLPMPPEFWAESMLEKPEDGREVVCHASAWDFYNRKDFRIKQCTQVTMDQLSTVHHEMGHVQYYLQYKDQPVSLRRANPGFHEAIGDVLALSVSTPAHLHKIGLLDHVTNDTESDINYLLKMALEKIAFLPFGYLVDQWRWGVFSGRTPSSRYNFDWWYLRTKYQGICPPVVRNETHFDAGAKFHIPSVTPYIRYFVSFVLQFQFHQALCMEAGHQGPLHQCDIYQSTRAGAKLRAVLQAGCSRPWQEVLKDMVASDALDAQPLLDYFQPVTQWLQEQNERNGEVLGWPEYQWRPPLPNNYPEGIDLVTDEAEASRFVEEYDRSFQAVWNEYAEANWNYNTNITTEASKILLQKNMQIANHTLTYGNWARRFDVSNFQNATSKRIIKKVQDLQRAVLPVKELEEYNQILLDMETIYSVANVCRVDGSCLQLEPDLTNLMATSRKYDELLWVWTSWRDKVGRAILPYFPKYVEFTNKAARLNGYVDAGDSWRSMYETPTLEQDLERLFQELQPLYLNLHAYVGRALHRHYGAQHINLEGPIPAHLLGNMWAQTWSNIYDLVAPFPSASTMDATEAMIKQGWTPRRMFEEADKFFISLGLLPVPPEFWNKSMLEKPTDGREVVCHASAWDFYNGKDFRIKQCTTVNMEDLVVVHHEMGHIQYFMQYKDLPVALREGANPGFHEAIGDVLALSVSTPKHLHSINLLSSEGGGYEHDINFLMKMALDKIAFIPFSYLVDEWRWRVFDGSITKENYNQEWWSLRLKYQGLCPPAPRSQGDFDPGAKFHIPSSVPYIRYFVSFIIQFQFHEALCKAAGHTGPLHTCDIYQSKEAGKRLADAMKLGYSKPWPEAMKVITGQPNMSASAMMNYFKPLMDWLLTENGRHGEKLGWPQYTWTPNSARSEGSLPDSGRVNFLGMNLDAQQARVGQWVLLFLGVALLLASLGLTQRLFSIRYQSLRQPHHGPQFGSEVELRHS

Adenosine receptor A1 = molecular target: T4, Adenosine receptor A1 (Homo sapiens, UniProt P30542); assay type: cell membranes, CHO, Membrane; details: cho
T4 sequence (P30542 whole entry): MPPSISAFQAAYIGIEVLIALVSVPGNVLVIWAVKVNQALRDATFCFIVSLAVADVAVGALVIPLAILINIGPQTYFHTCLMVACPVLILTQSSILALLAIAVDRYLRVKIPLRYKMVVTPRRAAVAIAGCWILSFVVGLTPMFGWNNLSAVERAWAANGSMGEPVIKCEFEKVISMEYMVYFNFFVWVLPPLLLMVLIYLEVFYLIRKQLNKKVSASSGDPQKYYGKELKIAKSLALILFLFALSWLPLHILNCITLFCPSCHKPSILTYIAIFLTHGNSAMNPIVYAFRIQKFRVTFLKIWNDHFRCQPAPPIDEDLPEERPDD

Measured: IC50

Chain of Matrix metalloproteinase-9 (P14780 whole entry): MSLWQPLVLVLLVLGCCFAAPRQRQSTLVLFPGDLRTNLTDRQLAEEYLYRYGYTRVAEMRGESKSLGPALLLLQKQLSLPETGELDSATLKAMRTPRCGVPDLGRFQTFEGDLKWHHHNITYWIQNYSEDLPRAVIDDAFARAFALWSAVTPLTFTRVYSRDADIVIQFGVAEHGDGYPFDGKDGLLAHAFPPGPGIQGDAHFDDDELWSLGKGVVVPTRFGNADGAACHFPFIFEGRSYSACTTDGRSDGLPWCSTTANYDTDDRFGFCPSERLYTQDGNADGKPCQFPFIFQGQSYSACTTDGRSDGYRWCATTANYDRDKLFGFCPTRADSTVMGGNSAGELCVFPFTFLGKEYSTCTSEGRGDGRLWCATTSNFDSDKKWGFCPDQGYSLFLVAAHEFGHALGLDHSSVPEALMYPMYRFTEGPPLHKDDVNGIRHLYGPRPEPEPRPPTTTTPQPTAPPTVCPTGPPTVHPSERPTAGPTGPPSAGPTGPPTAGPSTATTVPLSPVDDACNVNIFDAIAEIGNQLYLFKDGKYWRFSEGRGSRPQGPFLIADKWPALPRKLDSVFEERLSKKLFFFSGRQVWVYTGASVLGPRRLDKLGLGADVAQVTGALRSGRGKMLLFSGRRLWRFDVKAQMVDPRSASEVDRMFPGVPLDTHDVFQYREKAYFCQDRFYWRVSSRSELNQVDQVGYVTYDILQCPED
Chain of Platelet-activating factor receptor (P25105 whole entry): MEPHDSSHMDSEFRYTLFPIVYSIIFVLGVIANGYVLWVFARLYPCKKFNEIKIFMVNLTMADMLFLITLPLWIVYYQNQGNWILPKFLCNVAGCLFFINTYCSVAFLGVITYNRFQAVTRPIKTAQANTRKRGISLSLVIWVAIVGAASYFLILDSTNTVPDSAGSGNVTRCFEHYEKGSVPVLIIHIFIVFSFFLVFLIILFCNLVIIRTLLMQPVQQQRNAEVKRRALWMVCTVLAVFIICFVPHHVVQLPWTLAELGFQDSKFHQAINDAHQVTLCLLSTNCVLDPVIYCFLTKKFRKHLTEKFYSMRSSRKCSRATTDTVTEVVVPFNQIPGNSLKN
Chain of Mitogen-activated protein kinase 1 (P28482 whole entry): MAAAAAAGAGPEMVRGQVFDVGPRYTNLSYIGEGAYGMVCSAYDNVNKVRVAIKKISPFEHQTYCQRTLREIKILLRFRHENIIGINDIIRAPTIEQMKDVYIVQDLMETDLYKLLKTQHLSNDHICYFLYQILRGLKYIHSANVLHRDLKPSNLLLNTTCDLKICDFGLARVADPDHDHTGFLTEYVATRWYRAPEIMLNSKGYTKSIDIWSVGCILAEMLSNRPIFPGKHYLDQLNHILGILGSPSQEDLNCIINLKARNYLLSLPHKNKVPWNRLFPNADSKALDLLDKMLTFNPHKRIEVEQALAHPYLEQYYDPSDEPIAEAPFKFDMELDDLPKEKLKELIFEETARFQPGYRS

O=P1(N(CCCl)CCCl)NCCCO1 (configuration not stated) [CYCLOPHOSPHAMIDE ANHYDROUS]
Not Active: all assays above

CC(=O)O[C@]1(C(C)=O)CC[C@H]2[C@@H]3C=C(Cl)C4=CC(=O)[C@@H]5C[C@@H]5[C@]4(C)[C@H]3CC[C@@]21C [CYPROTERONE ACETATE]
Not Active: all assays above

Nc1nc(N)nc(NC2CC2)n1 [CYROMAZINE]
Not Active: all assays above

C#C[C@]1(O)CC[C@H]2[C@@H]3CCC4=Cc5oncc5C[C@]4(C)[C@H]3CC[C@@]21C [DANAZOL]
Not Active: all assays above

CCN[C@@H](C)Cc1cccc(C(F)(F)F)c1 [DEXFENFLURAMINE]
Not Active: all assays above

C[C@H](C(=O)O)c1cccc(C(=O)c2ccccc2)c1 [DEXKETOPROFEN]
Not Active: all assays above

CN1C(=O)CN=C(c2ccccc2)c2cc(Cl)ccc21 [DIAZEPAM]
Not Active: all assays above

CN1C[C@H](C(=O)N[C@]2(C)O[C@@]3(O)[C@@H]4CCCN4C(=O)[C@H](Cc4ccccc4)N3C2=O)C[C@@H]2c3cccc4[nH]cc(c34)C[C@H]21 [DIHYDROERGOTAMINE]
Not Active: all assays above

CC(CCc1ccc(O)cc1)NCCc1ccc(O)c(O)c1 (configuration not stated) [DOBUTAMINE]
Not Active: all assays above

CCn1cc(C(=O)O)c(=O)c2cc(F)c(N3CCNCC3)nc21 [ENOXACIN]
Not Active: all assays above

CCC(=O)O[C@H]1[C@H](O[C@@H]2[C@@H](C)[C@H](O[C@H]3C[C@@](C)(OC)[C@@H](O)[C@H](C)O3)[C@@H](C)C(=O)O[C@H](CC)[C@@](C)(O)[C@H](O)[C@@H](C)C(=O)[C@H](C)C[C@@]2(C)O)O[C@H](C)C[C@@H]1N(C)C [ERYTHROMYCIN PROPIONATE]
Not Active: all assays above

C=C(CC)C(=O)c1ccc(OCC(=O)O)c(Cl)c1Cl [ETHACRYNIC ACID]
Not Active: all assays above

C#C[C@]1(O)CC[C@H]2[C@@H]3CCc4cc(O)ccc4[C@H]3CC[C@@]21C [ETHINYL ESTRADIOL]
Not Active: all assays above

OCCO [ETHYLENE GLYCOL]
Not Active: all assays above

CC(=O)OCC(CCn1cnc2cnc(N)nc21)COC(C)=O [FAMCICLOVIR]
Not Active: all assays above

O=C(O)Cc1ccc(-c2ccccc2)cc1 [FELBINAC]
Not Active: all assays above
